3 molecules from patent publication US20220175926A1, “TARGETED SYNERGISTIC CANCER IMMUNOTHERAPY” (The Brigham and Women's Hospital, Inc., priority 2019, published 2022) can be followed below.

For one data set, the system named is RAW 264.7 macrophages. The experiment in a line: TNFα secretion from RAW 264.7 macrophages (ELISA). The format is cell-based, mouse. Particulars: RAW264.7 macrophages; compared with no treatment control. (In an ELISA, binding on a coated surface is turned into a signal by an enzyme label.)
In the next data set the test system is iBMDM. The experiment in a line: IL-1β secretion from iBMDM (ELISA). The format is cell-based, mouse. As for the experimental part:
RAW 264.7 macrophages (ATCC, VA, USA) were seeded in a 96 well plate at a density of 20,000 cells per well. Cells were incubated with 10 ng/mL R848 (Sigma, MO, USA) and/or 20 ng/mL ICG (Sigma, MO, USA) for 24 h. Ultrasound irradiation (frequency: 1 MHz; duty cycle: 50%; power: 2 W/cm^2) was applied to these cells for up to 5 min. TNFα secretion was analyzed by mouse TNFα DuoSet ELISA (R&D Systems, MN, USA) following the manufacturer's instructions. To measure IL-1β secretion, immortal bone marrow derived macrophages or iBMDM (BCH, MA, USA)) were seeded in a 96 well plate at a density of 20,000 cells per well. Cells were incubated with 10 ng/mL PAPC (Avanti, AL, USA) and/or 20 ng/mL ICG for 24 h. Ultrasound irradiation (frequency: 1 MHz; duty cycle: 50%; power: 2 W/cm^2) was applied to these cells for up to 5 min. IL-1β secretion was analyzed by mouse IL-1β ELISA (Invitrogen, CA, USA) following the manufacturer's instructions. In some experiments, cells were also treated with 0.5, 1, or 2 mM of ROS scavenger N-acetyl-cysteine (Sigma, MO, USA) right before treatment with ultrasound.

Another data set concerns CT26. The experiment in a line: Transwell co-culture assay, viability of CT26 tumor cells cocultured with RAW 264.7 macrophages (XTT). In kind it is cell-based. Particulars: single component or component removed. Here is the method:
RAW 264.7 macrophages were seeded in a Transwell insert at a density of 200,000 cells per insert (Corning, N.Y., USA) and CT26 (ATCC, VA, USA) were seeded in the lower compartment at a density of 200,000 cells per well, which was separated by a porous membrane (well area: 0.3 cm^2, insert size: 6.5 mm). Cells were incubated with […] and/or 20 ng/mL ICG for 24 h. Ultrasound irradiation (frequency: 1 MHz; duty cycle: 50%; power: 2 W/cm^2) was performed for 5 min. The viability of tumor cells after treatment with different formulations in the absence or presence of ultrasound was determined by XTT Cell Proliferation Assay Kit (ATCC, VA, USA) following the manufacturer's instructions.

Data set [1] can be described thus: Loading efficiency in liposomes. Particulars: sonosensitizer incubated with preformed liposomes at room temperature. The format is physicochemical. As for the experimental part: The lipid suspension was extruded through the 100 nm polycarbonate membrane using the extruder (Avanti, AL, USA) to obtain blank liposomes. Ethanol was removed by dialysis overnight at 4° C. To load the sonosensitizer in liposomes, ICG was firstly conjugated to a lipid tail such as DOPE before incubation with preformed blank liposomes at room temperature for 30 min. Unloaded ICG was removed by using the PD-10 column (GE Healthcare). To load PAPC (Avanti, AL, USA) in liposomes, the proper amount of PAPC in DMSO stock solution was incubated with liposomes containing ICG at room temperature for 30 min and the obtained formulation was used without further purification. To load R848 (Sigma, MO, USA) in liposomes, blank liposomes were firstly prepared in 250 mM ammonium sulfate, and the external ammonium sulfate was exchanged to 10% sucrose by dialysis overnight at 4° C., followed by incubation with R848 at 55° C. for 30 min and removal of unloaded R848 by dialysis overnight at 4° C. To measure the size of liposomes, 10 ul of liposomes were diluted to 2 mL with PBS and the size was measured with Zeta sizer. To measure the amount of ICG, 10 ul liposomes were added with 190 ul DMSO and the fluorescence was measured at Ex=780 nm, Em=810 nm.

The nature of data set [2]: Pharmacokinetic study after intravenous injection. The format is in vivo. As to conditions: C57BL/6 mice. As for the experimental part: C57BL/6 mice were intravenously injected with free ICG or lipo-ICG (liposome encapsulated ICG). At predetermined time points (0.25, 1, 3, 7, and 24 h post injection), 50 ul blood were collected in Microvette 500 Z-gel tubes by submandibular bleeding and kept on ice. The samples were centrifuged at 10,000 g for 5 min at room temperature, and 10 ul of the serum were diluted to 100 ul with PBS and the fluorescence intensity was measured at Ex=780, Em=810 nm.

SMILES strings stand for the structures.

Take `CC1(C)C(/C=C/C=C/C=C/C=C2\N(CCCCS(=O)(=O)O)c3ccc4ccccc4c3C2(C)C)=[N+](CCCCS(=O)(=O)[O-])c2ccc3ccccc3c21` [ICG, indocyanine green]: the TNFα release entry in the data set on RAW 264.7 macrophages was “didn't induce significant TNFα release”. Moreover, the IL-1β release result with iBMDM is on record as “didn't induce any detectable level of IL-1β”. For the same molecule, the CT26 cell viability result in the data set with CT26 is on record as “modest decrease of CT26 cell viability”. For the same molecule, in data set [1], the loading efficiency result was “less than 20%”. For the same molecule, the “detectability of ICG in serum after injection” value in data set [2] is “not detectable within a few minutes after injection”.
Regarding `CC(=O)N[C@@H](CS)C(=O)O` [NAC, N-acetyl-cysteine], the “IL-1β release on ROS depletion” value in the data set with iBMDM (ROS scavenger added to PAPC+ICG+US) is reported as “dose dependent reduction of IL-1β”.
As to `CCCCC/C=C\C/C=C\C/C=C\C/C=C\CCCC(=O)O[C@H](COC(=O)CCCCCCCCCCCCCCC)COP(=O)([O-])OCC[N+](C)(C)C` [PAPC, 1-palmitoyl-2-arachidonoyl-sn-glycero-3-phosphocholine], in the data set with iBMDM, the IL-1β release result is listed as “didn't induce any detectable level of IL-1β”.
